Experiments:
[1] = test system: Human HaCaT pre-keratinocytes; experiment: ER stress-triggered ROS accumulation, DCFH-DA staining, HaCaT cells treated with Brefeldin A; type: cell-based; settings: Brefeldin A 0.33 μg/ml, 24 hours, reversan 20 μM
Text: FIGS. 4A-4E. ER stress-triggered ROS accumulation is mediated by MGST2-derived LTC4. (4A) Mouse B16 cells were transfected with control siRNA or MGST2 siRNA, then treated with tunicamycin and stained with the superoxide anion indicator dihydroethidium (DHE). Quantitation of relative DHE fluorescence intensity is presented as determined by the ImageJ program. N=3, ***p<0.001. (FIG. 4B) Mouse B16 cells were transfected with control siRNA or MGST2 siRNA, then treated with tunicamycin and stained with the superoxide anion indicator dihydroethidium (DHE). Silencing efficiency of mouse MGST2 mRNA as determined by qRT-PCR on replicate samples is shown. N=3, ***p<0.001. (FIG. 4C) Human HaCaT pre-keratinocytes were treated with Brefeldin A (0.33 μg/ml, 24 hours) with or without the MRP1 inhibitor reversan (20 μM) or the LTC4 antagonists pranlukast, BAY-cysLT2 or BAY-u9773. The cells were then stained with the ROS indicator DCFH-DA. Quantitative analysis of relative DCF fluorescence intensity is presented. […] N=3, * p<0.05. (FIG. 4D) Immunoblotting with anti FLAG tag of HEK 293T cell extract following transfection with either control pcDNA4 vector or pcMGST2-FLAG. (FIG. 4E) HEK 293T cells were either mock-transfected (Control), transfected with pcDNA4 or with pcMGST2-FLAG and then stained with DHE. Quantitative analysis of relative DHE fluorescence intensity is presented N=4, **p<0.01.
ER stress and oxidative stress are tightly associated, as ER stress triggers oxidative stress and vice versa. Therefore, a test for determining whether MGST2 and its product LTC4 are involved in ER stress-triggered ROS accumulation was performed. As previously reported, ER stress triggered by tunicamycin leads to accumulation of ROS, as detected by staining with the superoxide anion indicator dihydroethidium (DHE). […] MGST2 consumes GSH by coupling it not only to LTA4 but also to other substrates. […] Triggering ER stress by Brefeldin A generated ROS, as measured by the indicator dichloro-dihydro-fluorescein diacetate (DCFH-DA, FIGS. 4C, 5). […]

[2] = test system: Human HaCaT pre-keratinocytes; experiment: ER stress-triggered oxidative DNA damage, anti 8-OHdG immunostaining, HaCaT cells; type: cell-based; settings: Brefeldin A 48 hours
Experimental: (§1) FIGS. 6A-6C. ER stress-triggered NADPH oxidase 4 (NOX4) expression, translocation towards the nuclei and DNA oxidation are mediated by the MGST2-LTC4 pathway. (FIG. 6A) Human WISH cells were treated with vehicle (Control) or Brefeldin A (0.66 μg/ml, 24 hours) in the absence or presence of BAY-u9773, MK571 or Montelukast. NOX4 levels were evaluated by immunoblotting. (FIG. 6B) Mouse B16 cells were treated with vehicle (Control) or tunicamycin (0.5 μg/ml, 24 hours) in the absence or presence of Montelukast, BAY-u9773 or BAY-cysLT2. NOX4 levels were evaluated by immunoblotting. (FIG. 6C) Human HaCaT pre-keratinocytes were treated with vehicle (Control) or Brefeldin A (48 hours) in the absence or presence of pranlukast or BAY-u9773, then immunostained with anti 8-OHdG. Quantitative analysis of 8-OHdG fluorescence intensity is shown. N=3 *p<0.05, ****p<0.001.
Accumulation of nuclear ROS in response to ER stress will result in oxidative DNA damage. To test whether the MGST2-LTC4 pathway is involved in ER stress-triggered DNA damage, the formation of the oxidized DNA derivative 8-hydroxy-2′dexoxyguanosine (8-OHdG) was measured. […] Altogether, the ER stress-triggered DNA damage was mediated to a very large extent by the MGST2-LTC4 pathway.

[3] = test system: Human HaCaT pre-keratinocytes; experiment: ER stress-triggered cell death, Crystal violet viability, HaCaT cells; type: cell-based
Experimental: (§2) FIGS. 7A-7G. The MGST2-LTC4 pathway mediates ER stress-triggered cell death. (FIG. 7A) Mouse B16 cells were transfected with control siRNA (siControl) or MGST2-specific siRNA (siMGST2), treated with vehicle or tunicamycin (1 μg/ml, 24 hours) (Tm) and then stained with Crystal violet. Relative viability of the cells is shown. N=3 ***p<0.0001. (FIG. 7B) Mouse B16 cells were transfected with control siRNA (siControl) or MGST2-specific siRNA (siMGST2), treated with vehicle or tunicamycin (Tm) and then stained with Crystal violet. Silencing efficiency of mouse MGST2 mRNA as determined by qRT-PCR on replicate samples is shown. N=3, ***p<0.001. (FIG. 7C) HEK 293T cells were mock-transfected, transfected with pcDNA4 or with pcMGST2-FLAG, treated with vehicle (Control) or Brefeldin A (0.66 μg/ml, 24 hours) and then stained with Crystal violet. Relative viability of the cells is shown. N=3 ****p<0.0001. (FIG. 7D) Human HaCaT pre-keratinocytes were treated with vehicle (Control) or Brefeldin A (BfA, 1.33 μg/ml, 48 hours) in the absence or presence of BAY-u9773 (80 nM). The plates were then stained with Crystal violet. Relative viability of the cells is shown. N=4 ***p<0.0001. (FIG. 7E) Human WISH cells were treated either with vehicle (Control) or tunicamycin (1 μg/ml, 48 hours) in the absence or presence of BAY-u9773 (80 nM) and then stained with Neutral red. Relative viability of the cells is shown. […]

[4] = test system: differentiated mouse C2C12 myocytes; experiment: Simvastatin-triggered cell death of differentiated C2C12 myocytes, Crystal violet; type: cell-based; settings: for cell death triggered by simvastatin (relative cell viability): 10 uM simvastatin, 5 days, pranlukast 10 μM, BAY-cysLT2 10 μM, BAY-u9773 1 μM
Experimental: FIGS. 11A-11B. BAY-cysLT2 and BAY-u9773 but not pranlukast attenuate simvastatin-triggered cell death of differentiated C2C12 mouse myocytes. (FIG. 11A) Survival of mouse C2C12 cells following differentiation into myocytes, treated with 10 uM simvastatin for 5 days in the presence of vehicle, pranlukast (10 μM), BAY-cysLT2 (10 μM), BAY-u9773 (1 μM) or Mevalonate (71.4 μM). The plates were then stained with Crystal violet and the relative cell viability was determined. (FIG. 11B) Quantification of the staining intensity is shown.
FIGS. 12A-12B. Zileuton but not montelukast attenuates simvastatin-triggered death of differentiated C2C12 mouse myocytes. (FIG. 12A) C2C12 immortalized mouse myoblasts (15,000 cells/100 ul DMEM) were seeded for 24 and then differentiated for 3 days (initiated by serum free medium supplemented with 1×ITS medium) and then treated with […] Simvastatin with or without montelukast (2 μM), zileuton (10 μM) or mevalonate (71.4 μM). After 4 days the cells were stained with crystal violet and photographed under light microscope. (FIG. 12B) Quantification of the staining intensity is shown.
To study the role of the MGST2-LTC4 pathway in statin-triggered cell death, differentiated mouse C2C12 myocytes in 96 well plates were treated with 10 uM simvastatin or vehicle in the presence of either vehicle, BAY-cysLT2 (10 μM) or BAY-u9773 (1 μM) or sodium mevalonate for 5 days.
To study the role of the MGST2-LTC4 pathway in statin-triggered cell death, differentiated mouse C2C12 myocytes in 96 well plates were treated with 20 uM simvastatin or vehicle in the presence of either vehicle, zileuton (10 μM) or sodium mevalonate for 4 days.

Human WISH cells [5] = experiment: Tunicamycin-induced cell death, Neutral red viability, WISH cells; type: cell-based; settings: tunicamycin 1 μg/ml, 48 hours, BAY-u9773 80 nM
Experimental: as §2

NOX4 in human WISH cells = experiment: NOX4 levels by immunoblotting, WISH cells under ER stress; type: cell-based; settings: Brefeldin A 0.66 μg/ml, 24 hours
Experimental: as §1
Several ligands of G-protein coupled receptors to which CysLTR1 and CysLTR2 belong elicit oxidative stress through receptor-mediated activation of NOX. Human WISH cells and Mouse B16 cells were treated with vehicle (Control) or Brefeldin A (0.66 μg/ml, 24 hours) in the absence or presence of BAY-u9773, MK571 or Montelukast and NOX4 levels were evaluated by immunoblotting.

Human WISH cells [6] = experiment: Brefeldin A-triggered cell death, Crystal violet viability, WISH cells; type: cell-based; settings: Brefeldin A 0.66 μg/ml, 48 hours, BAY-cysLT2 5 μM
Experimental: as §2

[7] = test system: HMGB1 released from B16 cells; experiment: Release of necrosis marker HMGB1 to culture medium, immunoblot, B16 cells; type: cell-based, mouse; settings: Brefeldin A 1.3 μg/ml, 24 hours, MK571
Experimental: (§3) FIGS. 8A-8C. Inhibitors of the MGST2-LTC4 Pathway Attenuate ER Stress-triggered Cell Death. (FIG. 8A) Human WISH cells were treated with vehicle (Control) or Brefeldin A (0.66 μg/ml, 48 hours) in the absence or presence of BAY-cysLT2. The plates were then stained with Crystal violet. Relative viability of the cells is shown. N=4, ***p<0.001. (FIG. 8B) Mouse B16 cells were treated with vehicle (Control) or tunicamycin (1 μg/ml, 24 hours) (Tm), thapsigargin (50 nM, 24 hours) (Tg) or Brefeldin A (BfA […], 24 hours) in the presence or absence of MK571 for 24 h. The plates were stained with Crystal violet. Relative viability of the cells is shown. N=4, ***p<0.001. (FIG. 8C) Immunoblot of the necrosis marker HMGB1 released to the culture media of B16 cells treated with vehicle (Control) or Brefeldin A (1.3 μg/ml, 24 hours) in the presence or absence of MK571. Ponceau staining serves as loading control.
(§4) On top of its activity as an MRP1 inhibitor, MK571 is a potent selective CysLTR1 antagonist.

Mouse B16 cells = experiment: ER stress-triggered cell death, Crystal violet viability, B16 cells; type: cell-based; settings: 24 hours, MK571 10 μM
Experimental: as §3, §4

Compound: O=C(NCCCN1CCOCC1)c1cnn2c(-c3ccccc3)cc(-c3ccccc3)nc12 [reversan]
- ROS accumulation (relative DCF fluorescence intensity) [1]: small but statistically insignificant inhibitory effect on ROS accumulation

Compound: CCCCC/C=C\C\C=C/C=C/C=C/[C@@H](Sc1ccc(C(=O)O)cc1)[C@@H](O)CCCC(=O)O [BAY-u9773]
- formation of nuclear 8-OHdG (oxidative DNA damage) [2]: even more effective in attenuating the DNA damage
- ROS accumulation (relative DCF fluorescence intensity) [1]: significantly inhibited ROS accumulation
- ER stress triggered cell death (relative viability) ([3]; Brefeldin A 1.33 μg/ml, 48 hours, BAY-u9773 80 nM): attenuated ER stress triggered cell death
- cell death triggered by simvastatin (relative cell viability) [4]: attenuated cell death
- tunicamycin-induced death (relative viability) (Human WISH cells [5]): significantly attenuated tunicamycin-induced death
- NOX4 expression upon ER stress (NOX4 in human WISH cells): greatly inhibited NOX4 expression

Compound: CC(c1cc2ccccc2s1)N(O)C(N)=O (centres unmarked) [zileuton]
- death triggered by proteasome inhibitor MG262 (relative viability) ([3]; MG262 50 nM, 24 hours, zileuton 10 μM): significantly protected HaCaT keratinocytes from death
- cell death triggered by simvastatin (staining intensity) ([4]; 20 uM simvastatin, 4 days, zileuton 10 μM, montelukast 2 μM): attenuated cell death

Compound: O=C(O)c1ccc(OCCCc2ccc(OCCCCOc3ccccc3)cc2)c(C(=O)NC2CCCC(C(=O)O)C2)c1 (centres unmarked) [BAY-cysLT2]
- ROS accumulation (relative DCF fluorescence intensity) [1]: significantly inhibited ROS accumulation
- cell death triggered by simvastatin (relative cell viability) [4]: attenuated cell death
- Brefeldin A-triggered death (relative viability) (Human WISH cells [6]): equally protected these cells from Brefeldin A

Compound: CN(C)C(=O)CCSC(SCCC(=O)O)c1cccc(/C=C/c2ccc3ccc(Cl)cc3n2)c1 (centres unmarked) [MK571]
- secretion of HMGB1 to the culture medium (cellular necrosis) [7]: reduced secretion of HMGB1
- cell death triggered by Brefeldin A (relative viability) (Mouse B16 cells; Brefeldin A): significantly attenuated cell death
- cell death triggered by thapsigargin (relative viability) (Mouse B16 cells; thapsigargin 50 nM): significantly attenuated cell death
- cell death triggered by tunicamycin (relative viability) (Mouse B16 cells; tunicamycin 1 μg/ml): significantly attenuated cell death
- NOX4 expression upon ER stress (NOX4 in human WISH cells): greatly inhibited NOX4 expression

Reference: patent US20180064682A1, “INHIBITORS OF LEUKOTRIENE-MEDIATED ACTIVITY FOR TREATING SIDE EFFECTS OF STATIN THERAPY” (Yeda Research and Development Co. Ltd., priority 2014, published 2018)
